Test results published in ChEMBL document CHEMBL1141762, “Morphinane alkaloids with cell protective effects from Sinomenium acutum” (J Nat Prod, 2005).
The source made the active and inactive calls. The rule behind the calls is not given here.

Test system: PC-12
Experiment: Cell protective activity against rat PC12 cells assessed as protection against H2O2-induced injury
Assay type: functional, cell-based

Row | Structure (SMILES) | Activity
1 | COC1=C[C@H]2[C@H]3Cc4ccc(OC)c(O)c4[C@@]2(CCN3)C[C@@H]1O | Active
2 | COC1=C[C@H]2[C@H]3Cc4ccc(OC)c(O)c4[C@@]2(CCN3)CC1=O | Active
3 | COC1=C[C@]23CCN(C)[C@H](Cc4ccc(OC)c(O)c42)C3=CC1=O | Active
